From the SangsterLogP compilation come the findings set out here.

Assay in one series: not given
Settings: not given
`CC(=O)c1ccccc1NCCO` displayed a logP of 1.28.
The molecule `CC(C)Nc1ccccc1C(N)=O` returned a logP of 1.87.
For the molecule `COc1ccccc1NC(C)=O`, the logP was found to be 1.02.
Turning to `COc1ccccc1NCCO`, the logP was 1.07.
`COc1ccccc1NCC(N)=O` returned a logP of 0.63.
Consider `NC(=O)c1ccccc1NC(=O)C(Cl)Cl`, for which the logP came out at 1.51.
On to `CC(=O)Nc1ccccc1C(C)=O`, for which the logP turned out to be 1.4.
`CC(=O)Nc1ccccc1C(N)=O`: the logP is 0.31.

A short description of a further series: method code SF-AS, from Lembo, S.; Sasso, V.; Silipo, C.; Vittoria, A. (1983). Physicochemical properties and drug design in a set of analgesics. Farmaco [Sci], 38(10)750-761. The settings on record: pH 7.4.
`COc1ccccc1NCC(C)=O`: the logD is 1.49.
The same measure, in the same setting: under `COc1ccccc1NCC#N` stands 1.3; under `COc1ccccc1NC(=O)C(Cl)Cl`, 2.41; under `CC(=O)CNc1ccccc1C(N)=O`, 0.61.
Consider `N#CCNc1ccccc1C(N)=O`, for which the logD was determined as 0.5.
Regarding `CCCCNc1ccccc1C(N)=O`, the logD turned out to be 2.33.
Same read-out and setting: with `CC(=O)c1ccccc1NC(=O)C(Cl)Cl` the figure was 2.65; with `CCCCNc1ccccc1OC`, 2.85; with `CC(=O)c1ccccc1NCC#N`, 1.58.
